Assay results from US12172975B2, “1H-indazole carboxamides as receptor-interacting protein kinase 1 inhibitors (RIPK1)” (BRISTOL-MYERS SQUIBB COMPANY, priority 2018, dated 2024).
Counter-ions that a name gives are not always drawn. Like-named read-outs stand apart in the source and are kept apart here.

How the values were obtained:
[1] = test system: MLKL phosphorylation in HT29-L23 human colorectal adenocarcinoma cells; assay: MLKL Phosphorylation High-Content Assay; format: cell-based; conditions: 6 h, necroptosis induced with TNFα, SMAC mimetic and Z-VAD, read-out: pMLKL (IC50)
In short: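 Following fixation and staining for phospho-S358 MLKL with Hoechst nuclear counterstain, high-content imaging quantified phosphorylation in HT29-L23 cells challenged 6 h with TNFα 35 ng/mL, SMAC mimetic 700 nM and Z-VAD 140 nM. Nec-1s at 6.25 μM defined full inhibition; 4-parameter logistic fits yielded IC50 and Ymax.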

[2] = target: His-GST-TVMV-hRIPK1 (1-324) (Homo sapiens (Human), UniProt Q13546); assay: RIPK1 HTRF Binding Assay; conditions: read-out: RIPK1 HTRF (IC50); FRET probe displacement, 1 h at rt
Sequence of His-GST-TVMV-hRIPK1 (1-324) (Q13546 1-324): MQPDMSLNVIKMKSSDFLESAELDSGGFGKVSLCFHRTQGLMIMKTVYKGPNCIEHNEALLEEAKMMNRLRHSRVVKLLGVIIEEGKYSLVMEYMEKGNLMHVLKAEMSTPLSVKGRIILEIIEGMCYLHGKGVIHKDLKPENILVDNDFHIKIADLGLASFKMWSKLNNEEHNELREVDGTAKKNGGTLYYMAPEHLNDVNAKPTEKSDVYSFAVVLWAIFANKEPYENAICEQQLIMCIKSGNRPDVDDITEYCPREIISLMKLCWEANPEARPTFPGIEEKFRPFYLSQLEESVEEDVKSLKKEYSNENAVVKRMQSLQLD

Row | SMILES | IC50 ([1]; Homo sapiens) | IC50 [2] | IC50 [1]
1 | CNC(=O)c1n[nH]c2cc(-c3cnc(OC)c(C(=O)NCc4ccccc4NC(=O)OC(C)(C)C)c3)ccc12 [Example 73, tert-butyl-N-{2-[({2-methoxy-5-[3-(methylcarbamoyl)-1H-indazol-6-yl]pyridin-3-yl}-formamido)methyl]phenyl}-carbamate] | 120 nM | 4.7 nM | 
2 | CNC(=O)c1n[nH]c2cc(-c3cnc(OC)c(C(=O)NCCC(=O)OC(C)(C)C)c3)ccc12 [Example 74, tert-butyl 3-({2-methoxy-5-[3-(methylcarbamoyl)-1H-indazol-6-yl]pyridin-3-yl}formamido)-propanoate] | 62 nM | 28 nM | 
3 | CNC(=O)c1n[nH]c2cc(-c3cnc(OC)c(C(=O)NCc4ccccc4OCC(F)(F)F)c3)ccc12 [Example 75, 6-[6-methoxy-5-({[2-(2,2,2-trifluoroethoxy)phenyl]-methyl}carbamoyl)pyridin-3-yl]-N-methyl-1H-indazole-3-carboxamide, TFA] |  | 1.8 nM | 4.4 nM
4 | CNC(=O)c1n[nH]c2cc(-c3cnc(OC)c(C(=O)NCc4cc(C(F)(F)F)ccc4OC)c3)ccc12 [Example 76, 6-[6-methoxy-5-({[2-methoxy-5-(trifluoromethyl)phenyl]-methyl}carbamoyl)pyridin-3-yl]-N-methyl-1H-indazole-3-carboxamide] | 100 nM | 98 nM | 
5 | CNC(=O)c1n[nH]c2cc(-c3cnc(OC)c(C(=O)NC[C@@H]4CCCC[C@H]4NC(=O)OC(C)(C)C)c3)ccc12 [Example 77, tert-butyl N-[(1R,2S)-2-[({2-methoxy-5-[3-(methylcarbam-oyl)-1H-indazol-6-yl]pyridin-3-yl}formamido)methyl]-cyclohexyl]carbamate] |  | 3.8 nM | 78 nM
6 | CNC(=O)c1n[nH]c2cc(-c3cnc(OC)c(C(=O)NCC4CCCOC4c4ccccc4)c3)ccc12 (centres unmarked) [Example 79, 6-(6-methoxy-5-{[(2-phenyl-oxan-3-yl)methyl]carbamoyl}-pyridin-3-yl)-N-methyl-1H-indazole-3-carboxamide] | 21 nM | 1.8 nM | 
7 | CNC(=O)c1n[nH]c2cc(-c3cnc(OC)c(C(=O)NCC4CCCOC4C(C)(C)C)c3)ccc12 (centres unmarked) [Example 83, 6-(5-{[(2-tert-butyloxan-3-yl)-methyl]carbamoyl}-6-methoxy-pyridin-3-yl)-N-methyl-1H-indazole-3-carboxamide] | 47 nM | 7.6 nM | 
8 | CNC(=O)c1n[nH]c2cc(-c3cnc(OC)c(C(=O)NCc4ccccc4C#N)c3)ccc12 [Example 84, 6-(5-{[(2-cyanophenyl)methyl]-carbamoyl}-6-methoxypyridin-3-yl)-N-methyl-1H-indazole-3-carboxamide] | 180 nM | 45 nM | 
9 | CNC(=O)c1n[nH]c2cc(-c3cnc(OC)c(C(=O)NCc4ccccc4OCC4CCC4)c3)ccc12 [Example 86, 6-[5-({[2-(cyclobutylmethoxy)-phenyl]methyl}carbamoyl)-6-methoxypyridin-3-yl]-N-methyl-1H-indazole-3-carbox-amide] |  | 2.4 nM | 4.1 nM
10 | CNC(=O)c1n[nH]c2cc(-c3cnc(OC)c(C(=O)NC4CCCC(OCC(F)(F)F)C4)c3)ccc12 (centres unmarked) [Example 87, 6-(6-methoxy-5-{[3-(2,2,2-trifluoroethoxy)cyclohexyl]-carbamoyl}pyridin-3-yl)-N-methyl-1H-indazole-3-carbox-amide] |  | 3.9 nM | 13 nM
11 | CCOC(=O)C(C)(C)CNC(=O)c1cc(-c2ccc3c(C(=O)NC)n[nH]c3c2)cnc1OC [Example 88, ethyl 3-({2-methoxy-5-[3-(methylcarbamoyl)-1H-indazol-6-yl]pyridin-3-yl}-formamido)-2,2-dimethyl-propanoate] | 250 nM | 52 nM | 
12 | CNC(=O)c1n[nH]c2cc(-c3cnc(OC)c(C(=O)NCC(C)(C)C(=O)OC(C)(C)C)c3)ccc12 [Example 90, tert-butyl 3-({2-methoxy-5-[3-(methylcarbamoyl)-1H-indazol-6-yl]pyridin-3-yl}-formamido)-2,2-dimethyl-propanoate] | 47 nM | 16 nM | 
13 | CNC(=O)c1n[nH]c2cc(-c3cnc(OC)c(C(=O)NCC(C)(C)C(=O)NCc4ccc(F)cc4)c3)ccc12 [Example 91, 6-{5-[(2-{[(4-fluorophenyl)-methyl]carbamoyl}-2,2-dimethylethyl)carbamoyl]-6-methoxypyridin-3-yl}-N-methyl-1H-indazole-3-carboxamide] | 16 nM | 1.8 nM | 
14 | CNC(=O)c1n[nH]c2cc(-c3cnc(OC)c(C(=O)NCc4ccccc4OC(C)C)c3)ccc12 [Example 93, 6-[6-methoxy-5-({[2-(propan-2-yloxy)phenyl]methyl}-carbamoyl)pyridin-3-yl]-N-methyl-1H-indazole-3-carbox-amide] |  | 1.3 nM | 8.3 nM
15 | CNC(=O)c1n[nH]c2cc(-c3cnc(OC)c(C(=O)NCc4cccnc4OC)c3)ccc12 [Example 94, 6-(6-methoxy-5-{[(2-methoxy-pyridin-3-yl)methyl]carbam-oyl}pyridin-3-yl)-N-methyl-1H-indazole-3-carboxamide, TFA] |  | 9.9 nM | 96 nM
16 | CNC(=O)c1n[nH]c2cc(-c3cnc(OC)c(C(=O)NC45CC6CC(C4)CC(c4ccccc4)(C6)C5)c3)ccc12 [Example 95, 6-{6-methoxy-5-[(3-phenyl-adamantan-1-yl)carbamoyl]-pyridin-3-yl}-N-methyl-1H-indazole-3-carboxamide] | 9.3 nM | 17 nM | 
17 | CNC(=O)c1n[nH]c2cc(-c3cnc(OC)c(C(=O)NCC4CCCN4C(=O)C(C)(C)C(F)(F)F)c3)ccc12 (centres unmarked) [Example 96, 6-[6-methoxy-5-({[1-(3,3,3-trifIuoro-2,2-dimethylpropan-oyl)pyrrolidin-2-yl]methyl}-carbamoyl)pyridin-3-yl]-N-methyl-1H-indazole-3-carboxamide] |  | 34 nM | 4.6 nM
18 | CNC(=O)c1n[nH]c2cc(-c3cnc(OC)c(C(=O)NC4CCCC(C(=O)N5CCOCC5)C4)c3)ccc12 (centres unmarked) [Example 98, 6-(6-methoxy-5-{[3-(morpho-line-4-carbonyl)cyclohexyl]-carbamoyl}pyridin-3-yl)-N-methyl-1H-indazole-3-carbox-amide] |  | 26 nM | 46 nM
19 | CNC(=O)c1n[nH]c2cc(-c3cnc(OC)c(C(=O)NC4CCCC(C(=O)N5CCCC5)C4)c3)ccc12 (centres unmarked) [Example 99, 6-(6-methoxy-5-{[3-(pyrrol-idine-1-carbonyl)cyclohexyl]-carbamoyl}pyridin-3-yl)-N-methyl-1H-indazole-3-carbox-amide] |  | 11 nM | 14 nM
20 | CCCN(C)C(=O)C1CCCC(NC(=O)c2cc(-c3ccc4c(C(=O)NC)n[nH]c4c3)cnc2OC)C1 (centres unmarked) [Example 100, 6-[6-methoxy-5-({3-[methyl-(propyl)carbamoyl]cyclo-hexyl}carbamoyl)pyridin-3-yl]-N-methyl-1H-indazole-3-carboxamide] | 63 nM | 18 nM | 
21 | CNC(=O)c1n[nH]c2cc(-c3cnc(OC)c(C(=O)NC(C)c4cccc(C(F)(F)F)c4)c3)ccc12 (centres unmarked) [Example 101, 6-[6-methoxy-5-({1-[3-(tri-fluoromethyl)phenyl]ethyl}-carbamoyl)pyridin-3-yl]-N-methyl-1H-indazole-3-carbox-amide] |  | 4.5 nM | 19 nM
22 | CNC(=O)c1n[nH]c2cc(-c3cnc(OC)c(C(=O)NCc4ccc(F)c(C(F)(F)F)c4)c3)ccc12 [Example 104, 6-[5-({[4-fluoro-3-(trifluoro-methyl)phenyl]methyl}carbam-oyl)-6-methoxypyridin-3-yl]-N-methyl-1H-indazole-3-carboxamide] |  | 40 nM | 93 nM
23 | CNC(=O)c1n[nH]c2cc(-c3cnc(OC)c(C(=O)NCc4cccnc4OCC4CCC4)c3)ccc12 [Example 112, 6-[5-({[2-(cyclobutylmeth-oxy)pyridin-3-yl]methyl}-carbamoyl)-6-methoxypyridin-3-yl]-N-methyl-1H-indazole-3-carboxamide] | 7.6 nM | 4.8 nM | 
24 | CNC(=O)c1n[nH]c2cc(-c3cnc(OC)c(C(=O)NCc4ccccc4OC4CCCCC4)c3)ccc12 [Example 113, 6-[5-({[2-(cyclohexyloxy)-phenyl]methyl}carbamoyl)-6-methoxypyridin-3-yl]-N-methyl-1H-indazole-3-carbox-amide] |  | 27 nM | 9.7 nM
25 | CNC(=O)c1n[nH]c2cc(-c3cnc(OC)c(C(=O)NCc4cccc(OCC5CCC5)c4)c3)ccc12 [Example 115, 6-[5-({[3-(cyclobutylmeth-oxy)phenyl]methyl}carbam-oyl)-6-methoxypyridin-3-yl]-N-methyl-1H-indazole-3-carboxamide] |  | 0.04 nM | 100 nM
26 | CNC(=O)c1n[nH]c2cc(-c3cnc(OC)c(C(=O)NCC4CCCC4(C)C)c3)ccc12 (centres unmarked) [Example 116, 6-(5-{[(2,2-dimethylcyclo-pentyl)methyl]carbamoyl}-6-methoxypyridin-3-yl)-N-methyl-1H-indazole-3-carbox-amide] |  | 9.6 nM | 54 nM
27 | CNC(=O)c1n[nH]c2cc(-c3cnc(OC)c(C(=O)NCc4ncccc4OCC4CCC4)c3)ccc12 [Example 117, 6-[5-({[3-(cyclobutylmethoxy)-pyridin-2-yl]methyl}carbam-oyl)-6-methoxypyridin-3-yl]-N-methyl-1H-indazole-3-carboxamide, TFA] |  | 2.6 nM | 11 nM
28 | CNC(=O)c1n[nH]c2cc(-c3cnc(OC)c(C(=O)NC4CCCC(Oc5ccccc5)C4)c3)ccc12 (centres unmarked) [Example 118, 6-{6-methoxy-5-[(3-phenoxy-cyclohexyl)carbamoyl]pyridin-3-yl}-N-methyl-1H-indazole-3-carboxamide] | 2.6 nM | 6.2 nM | 
